Tests used:
DPP-IV = target: T1, DPP-IV (Homo sapiens, UniProt P27487); assay: In vitro DPP-IV inhibition assay (fluorescence, Abnova kit KA1311); format: biochemical; conditions: for inhibition at 100 µM: compound concentration 100 μM, read-out: inhibition rate; for IC50: fluorescence detection, 37 °C, 30 min
T1 construct: purchased Abnova Co. Ltd. (Taipei, Taiwan) KA1311
Protocol: A DPP-IV Inhibitor Screening Assay Kit (KA1311) was purchased from Abnova Co. Ltd. (Taipei, Taiwan). […] The in vitro inhibitory activity of each compound against DPP-IV was determined based on a fluorescence detection method. […] Additionally, a “100% initial activity well” (10 μL dimethyl sulfoxide [DMSO], 30 μL DPP assay buffer, and 10 μL DPP-IV) and a “background well” (10 μL DMSO and 40 μL DPP assay buffer) were prepared. Next, 50 μL of DPP was added to each well and incubated at 37 °C for 30 min. A FlexStation 3 multifunctional microplate reader (Molecular Devices, Sunnyvale, CA, USA) was used to detect the fluorescence value (excitation wavelength: 350–360 nm; emission wavelength: 450–465 nm). […] IC50 values were then calculated using GraphPad Prism 5 (GraphPad Software, La Jolla, CA, USA).

[1] = set-up: method as in doi:10.1002/ptr.2650080207; conditions: cited from earlier work
arthritis in rats = system: arthritis in rats; set-up: method as in PMID 11440138; conditions: cited from earlier work
Cathepsin L = system: Cathepsin L; set-up: method as in PMID 11440138; conditions: cited from earlier work
Cathepsin B = system: Cathepsin B; set-up: method as in PMID 11440138; conditions: cited from earlier work
[2] = system: c-Jun N-terminal kinase (JNK) and p38 pathways; set-up: method as in PMID 25448500; conditions: induced by LPS stimulation; cited from earlier work

T1 sequence (P27487 whole entry): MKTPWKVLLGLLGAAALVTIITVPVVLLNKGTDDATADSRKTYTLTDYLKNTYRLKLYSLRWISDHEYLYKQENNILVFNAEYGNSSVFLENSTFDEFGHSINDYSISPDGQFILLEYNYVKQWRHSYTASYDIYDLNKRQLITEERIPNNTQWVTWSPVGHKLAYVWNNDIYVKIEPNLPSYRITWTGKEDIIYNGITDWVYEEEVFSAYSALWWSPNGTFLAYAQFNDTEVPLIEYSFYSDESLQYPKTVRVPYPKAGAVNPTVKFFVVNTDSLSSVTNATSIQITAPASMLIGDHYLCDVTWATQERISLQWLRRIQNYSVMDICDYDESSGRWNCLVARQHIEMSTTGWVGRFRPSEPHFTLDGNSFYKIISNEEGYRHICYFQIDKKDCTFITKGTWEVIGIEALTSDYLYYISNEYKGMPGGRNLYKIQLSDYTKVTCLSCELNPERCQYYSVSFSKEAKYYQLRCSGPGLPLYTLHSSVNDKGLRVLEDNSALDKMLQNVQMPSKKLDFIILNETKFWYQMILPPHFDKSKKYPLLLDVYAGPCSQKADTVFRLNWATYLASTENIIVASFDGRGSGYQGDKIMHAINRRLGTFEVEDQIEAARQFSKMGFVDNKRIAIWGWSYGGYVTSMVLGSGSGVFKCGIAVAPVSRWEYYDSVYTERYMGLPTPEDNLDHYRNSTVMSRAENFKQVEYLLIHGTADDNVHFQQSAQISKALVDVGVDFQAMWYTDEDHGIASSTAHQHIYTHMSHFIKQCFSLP

Row | Compound | inhibition at 100 µM (DPP-IV) | IC50 (DPP-IV) | hypotensive effect [1] | effect on arthritis (arthritis in rats) | Cathepsin L inhibition (Cathepsin L) | Cathepsin B inhibition (Cathepsin B) | inhibition of JNK and p38 pathways [2]
1 | CCOC(=O)NCc1ccc(O[C@@H]2O[C@@H](C)[C@H](O)[C@@H](O)[C@H]2O)cc1 [Compound 1, O-Ethyl-4-[(α-L-rhamnosyloxy)benzyl] carbamate] | 71.2% | 0.798 µM | a certain hypotensive effect |  |  |  | 
2 | C[C@@H]1O[C@@H](Oc2ccc(CN=C=S)cc2)[C@H](O)[C@H](O)[C@H]1O [Compound 2, 4-[(α-L-rhamnosyloxy)benzyl] Isothiocyanate] | 30.9% | 158 µM |  |  |  |  | 
3 | CC(=O)OC[C@H](Cc1ccccc1)NC(=O)[C@H](Cc1ccccc1)NC(=O)c1ccccc1 [Compound 3, Aurantiamide acetate] | 23.5% | 191 µM |  | relieves arthritis | inhibiting | inhibiting | inhibit
